Measurements published in patent US20250144216A1, “NEAR-INFRARED PHOTODYNAMIC THERAPY USING SECOND HARMONIC GENERATION NANOPARTICLE AND VISIBLE LIGHT REACTIVE PHOTOSENSITIZER” (ARIEL SCIENTIFIC INNOVATIONS LTD., priority 2022, published 2025).

Tests used:
S. aureus (ATCC 25923) [1] = assay: microbe, parasite or virus in culture; format: cell-based
Protocol: Laser Setup—Laser was generated using Millennia® Pro s Series 5SJSPG (Spectra physics, USA) laser setup to generate a […] continuous wave laser which was passed through an ultra-fast oscillator Femtosource® Scientific 20 (Femtolasers, Inc.) to generate the Near Infrared (800 nm) pulsed wave (pulse frequency 76.9 MHz) beamline. The beamline was appropriately arranged to provide real-time power readings using a beam splitter. Power measurements were recorded using a compact power meter PM100D (Thorlabs, Inc.) with S370C thermal power head (Thorlabs, Inc.)).
S. aureus (ATCC 25923) were grown on Brain Heart agar plates (BHA, Acumedia, Lansing, MI, USA) for 24 hours. Grown cells were transferred into Brain Heart broth (BH, Acumedia, Lansing, MI, USA) and incubated at 37±1° C. with shaking at 170 rpm until reaching the absorbance A=0.10±0.02 at 660 nm, corresponding to a final concentration of 10^8 cells/ml and diluted appropriately to the final concentration of 10^3-10^4 cells/ml with commercially available sterile 0.9% saline solution before the light and dark phototoxicity assays.
200 μl bacterial suspensions in 0.9% sterile saline solution (10^3-10^4 cells/μl) were incubated with 20 μl of PDT nanoparticle conjugates (400 μg/ml) under laser (800 nm, 232-228 mW,76.9 MHz) with shaking for 10 minutes. […] The CFUwere counted using a colony counter Scan 500.

S. aureus (ATCC 25923) [2] = assay: Dark toxicity, viability of S. aureus (CFU count); format: cell-based; conditions: dark conditions; compared to the control
Protocol: S. aureus (ATCC 25923) were grown on Brain Heart agar plates (BHA, Acumedia, Lansing, MI, USA) for 24 hours. […] 200 μl Cell suspensions in 0.9% saline (10^3-10^4 cells/ml) in sterile saline solution were incubated with 20 μl of PDT nanoparticle conjugates (400 μg/ml) in the dark with shaking for 30 minutes. Subsequently, aliquots of each sample (100 μl) were spread over BHA plates with a Drigalsky spreader and incubated at 37° C. for 24 h. The colony forming units (CFU) were counted using a colony counter Scan 500 (Interscience, Saint-Nom-la-Breteche, France).

Row | SMILES | viability of S. aureus increased by (S. aureus (ATCC 25923) [1]; 10 minutes pulsed NIR (800 nm) laser exposure) [%] | increase in viability of S. aureus (S. aureus (ATCC 25923) [2]) [%] | inhibition at 400 µg/mL (S. aureus (ATCC 25923) [1]; Staphylococcus aureus, ATCC25923, 10 min, read-out: viability of S. aureus reduced by) [%]
1 | COc1cc(/C=C/C(=O)CC(=O)/C=C/c2ccc(O)c(OC)c2)ccc1O [Curcumin, curcumin] | 20.2±1.4 | 14.2±1.1 | –
2 | C=CC1=C(C)c2cc3[nH]c(cc4nc(cc5[nH]c(cc1n2)c(C)c5CCC(=O)O)C(CCC(=O)O)=C4C)c(C)c3C=C [PPIX, protoporphyrin IX] | – | – | 20.4 ± 2.5
